Calls of active or inactive are those of the source. No rule for the calls is given here.
Tested on: CCRIS mutagenicity, Ames/micronucleus/aberration tests
Experiment: CCRIS mutagenicity studies
[1] = Test System: AMES SALMONELLA TYPHIMURIUM, Strain/Indicator: TA98, Metabolic Activation: HAMSTER, LIVER, S-9, AROCLOR 1254 (10%), Method: PREINCUBATION
[2] = Test System: AMES SALMONELLA TYPHIMURIUM, Strain/Indicator: TA98, Metabolic Activation: NONE, Method: PREINCUBATION
[3] = Test System: AMES SALMONELLA TYPHIMURIUM, Strain/Indicator: TA98, Metabolic Activation: RAT, LIVER, S-9, AROCLOR 1254 (10%), Method: PREINCUBATION
[4] = Test System: AMES SALMONELLA TYPHIMURIUM, Strain/Indicator: TA100, Metabolic Activation: HAMSTER, LIVER, S-9, AROCLOR 1254 (10%), Method: PREINCUBATION
[5] = Test System: AMES SALMONELLA TYPHIMURIUM, Strain/Indicator: TA100, Metabolic Activation: NONE, Method: PREINCUBATION
[6] = Test System: AMES SALMONELLA TYPHIMURIUM, Strain/Indicator: TA100, Metabolic Activation: RAT, LIVER, S-9, AROCLOR 1254 (10%), Method: PREINCUBATION
[7] = Test System: AMES SALMONELLA TYPHIMURIUM, Strain/Indicator: TA1535, Metabolic Activation: HAMSTER, LIVER, S-9, AROCLOR 1254 (10%), Method: PREINCUBATION
[8] = Test System: AMES SALMONELLA TYPHIMURIUM, Strain/Indicator: TA1535, Metabolic Activation: NONE, Method: PREINCUBATION
[9] = Test System: AMES SALMONELLA TYPHIMURIUM, Strain/Indicator: TA1535, Metabolic Activation: RAT, LIVER, S-9, AROCLOR 1254 (10%), Method: PREINCUBATION
[10] = Test System: AMES SALMONELLA TYPHIMURIUM, Strain/Indicator: TA1537, Metabolic Activation: HAMSTER, LIVER, S-9, AROCLOR 1254 (10%), Method: PREINCUBATION
[11] = Test System: AMES SALMONELLA TYPHIMURIUM, Strain/Indicator: TA1537, Metabolic Activation: NONE, Method: PREINCUBATION
[12] = Test System: AMES SALMONELLA TYPHIMURIUM, Strain/Indicator: TA1537, Metabolic Activation: RAT, LIVER, S-9, AROCLOR 1254 (10%), Method: PREINCUBATION
[13] = Test System: AMES SALMONELLA TYPHIMURIUM, Strain/Indicator: TA98, Metabolic Activation: NONE, Method: STANDARD PLATE
[14] = Test System: AMES SALMONELLA TYPHIMURIUM, Strain/Indicator: TA100, Metabolic Activation: NONE, Method: STANDARD PLATE
[15] = Test System: AMES SALMONELLA TYPHIMURIUM, Strain/Indicator: TA1538, Metabolic Activation: NONE, Method: STANDARD PLATE

Measured: mutagenic call

CCN(CC)CC(O)CNc1c2ccc([N+](=O)[O-])cc2nc2cc(OC)c(OC)cc12 (centres undefined)
active: Test System: Escherichia coli, Strain/Indicator: CC107 (G6 to B7 frameshifts), Metabolic Activation: None, Method: Modified preincubation active; positive | Test System: Escherichia coli, Strain/Indicator: CC108 (G6 to G5 frameshifts), Metabolic Activation: None, Method: Modified preincubation active; positive | Test System: Escherichia coli, Strain/Indicator: CC109 (CG5 to CG4 frameshifts), Metabolic Activation: None, Method: Modified preincubation active; positive
inactive: Test System: Escherichia coli, Strain/Indicator: CC111 (A7 to A6 frameshifts), Metabolic Activation: None, Method: Modified preincubation inactive; negative

CCSC(=O)N(CC)C1CCCCC1
inactive: End Point: In vitro chromosomal aberrations, Test System: Human lymphocytes, Metabolic Activation: None inactive; negative | End Point: In vitro chromosomal aberrations, Test System: Human lymphocytes, Metabolic Activation: S-9 (No additional details provided in source) inactive; negative | End Point: In vivo micronucleus, Test System: Bone marrow, Species: Mouse, Strain/Sex: CD/Female, Route: Oral inactive; negative | End Point: In vivo micronucleus, Test System: Bone marrow, Species: Mouse, Strain/Sex: CD/Male, Route: Oral inactive; negative

c1ccc(P(c2ccccc2)c2ccccc2)cc1
inactive: [1] inactive; negative | [2] inactive; negative | [3] inactive; negative | [4] inactive; negative | [5] inactive; negative | [6] inactive; negative | [7] inactive; negative | [8] inactive; negative | [9] inactive; negative | [10] inactive; negative | [11] inactive; negative | [12] inactive; negative

CC1C(C)(C)C2=C(C(=O)CCC2)C1(C)C (centres undefined)
inactive: Test System: AMES SALMONELLA TYPHIMURIUM, Strain/Indicator: TA97, Metabolic Activation: NONE, Method: STANDARD PLATE inactive; negative | Test System: AMES SALMONELLA TYPHIMURIUM, Strain/Indicator: TA97, Metabolic Activation: RAT LIVER S-9, AROCLOR 1254, Method: STANDARD PLATE inactive; negative | [13] inactive; negative | Test System: AMES SALMONELLA TYPHIMURIUM, Strain/Indicator: TA98, Metabolic Activation: RAT LIVER S-9, AROCLOR 1254, Method: STANDARD PLATE inactive; negative | [14] inactive; negative | Test System: AMES SALMONELLA TYPHIMURIUM, Strain/Indicator: TA100, Metabolic Activation: RAT LIVER S-9, AROCLOR 1254, Method: STANDARD PLATE inactive; negative | Test System: AMES SALMONELLA TYPHIMURIUM, Strain/Indicator: TA102, Metabolic Activation: NONE, Method: STANDARD PLATE inactive; negative | Test System: AMES SALMONELLA TYPHIMURIUM, Strain/Indicator: TA102, Metabolic Activation: RAT LIVER S-9, AROCLOR 1254, Method: STANDARD PLATE inactive; negative

O=Nc1ccc2ccccc2c1
active: [13] active; positive | Test System: AMES SALMONELLA TYPHIMURIUM, Strain/Indicator: TA98, Metabolic Activation: S-9, Method: STANDARD PLATE active; positive | [14] active; positive | Test System: AMES SALMONELLA TYPHIMURIUM, Strain/Indicator: TA100, Metabolic Activation: S-9, Method: STANDARD PLATE active; positive | [15] active; positive

Cc1cc(N)c([N+](=O)[O-])cc1N
inactive: [13] inactive; negative | [14] inactive; negative | Test System: AMES SALMONELLA TYPHIMURIUM, Strain/Indicator: TA100, Metabolic Activation: RAT, LIVER, S-9, AROCLOR 1254, Method: STANDARD PLATE inactive; negative | Test System: AMES SALMONELLA TYPHIMURIUM, Strain/Indicator: TA1535, Metabolic Activation: NONE, Method: STANDARD PLATE inactive; negative | Test System: AMES SALMONELLA TYPHIMURIUM, Strain/Indicator: TA1535, Metabolic Activation: RAT, LIVER, S-9, AROCLOR 1254, Method: STANDARD PLATE inactive; negative | Test System: AMES SALMONELLA TYPHIMURIUM, Strain/Indicator: TA1537, Metabolic Activation: NONE, Method: STANDARD PLATE inactive; negative | [15] inactive; negative
active: Test System: AMES SALMONELLA TYPHIMURIUM, Strain/Indicator: TA98, Metabolic Activation: RAT, LIVER, S-9, AROCLOR 1254, Method: STANDARD PLATE active; positive | Test System: AMES SALMONELLA TYPHIMURIUM, Strain/Indicator: TA1537, Metabolic Activation: RAT, LIVER, S-9, AROCLOR 1254, Method: STANDARD PLATE active; positive | Test System: AMES SALMONELLA TYPHIMURIUM, Strain/Indicator: TA1538, Metabolic Activation: RAT, LIVER, S-9, AROCLOR 1254, Method: STANDARD PLATE active; positive

CC(C)CCCCCCCOC(=O)c1ccccc1C(=O)OCCCCCCCC(C)C
inactive: [1] inactive; negative | [2] inactive; negative | [3] inactive; negative | [4] inactive; negative | [5] inactive; negative | [6] inactive; negative | [7] inactive; negative | [8] inactive; negative | [9] inactive; negative | [10] inactive; negative | [11] inactive; negative | [12] inactive; negative | Test System: MOUSE LYMPHOMA, Strain/Indicator: L5178Y (TK+/TK-), Metabolic Activation: NONE, Method: SUSPENSION/PLATE inactive; negative | Test System: MOUSE LYMPHOMA, Strain/Indicator: L5178Y (TK+/TK-), Metabolic Activation: RAT LIVER S-9, Method: SUSPENSION/PLATE inactive; negative

C=CCN(CC=C)CC=C
inactive: [1] inactive; negative | [2] inactive; negative | [3] inactive; negative | [4] inactive; negative | [5] inactive; negative | [6] inactive; negative | [7] inactive; negative | [8] inactive; negative | [9] inactive; negative | [10] inactive; negative | [11] inactive; negative | [12] inactive; negative

Reference: PubChem BioAssay AID1259407 (Chemical Carcinogenesis Research Information System (CCRIS), 2018)
